Laboratory results taken from patent publication US7495027B2, “3-aryl-4-hydroxyfuranone compounds and the human and animal health use thereof” (Wyeth, priority 2003, dated 2009).
Values after ≈ are worked out from the molar mass of the structure shown. Where two headings read alike, the source gives them in different places.

What was measured:
Streptococci = assay: Minimum inhibitory concentration, microdilution broth method, streptococci; assay type: cell-based; conditions: S. pneumo GC 1894; Mueller-Hinton broth with 5% horse blood, 18-22 hours at 35° C.
Protocol: (§1) Evaluation of the Minimum Inhibitory Concentration of Test Compounds Against A Variety of Bacterial Strains
(§2) In this evaluation the minimal inhibitory concentration (MIC) of test compounds against Gram positive and Gram negative bacteria is performed using the microdilution broth method as recommended by the National Committee for Clinical Laboratory Standards (Approved Standards M7-A5 2000). Mueller-Hinton broth is used for the enterobacteriaceae, staphylococci and enterococci. Streptococci are also tested in Mueller-Hinton broth supplemented with 5% horse blood (LHB). Test organisms include recent clinical isolates that are resistant to methicillin, penicillin and/or vancomycin. […].

enterococci = assay: Minimum inhibitory concentration, microdilution broth method, enterococci; assay type: cell-based; conditions: Enterococcus faecalis, Mueller-Hinton broth, 18-22 hours at 35° C.
Protocol: as §1, §2

[1] = biological target: E. coli Uridine-diphosphate-N-acetvimuramoyl: L-alanine lipase, MurC (Escherichia coli, UniProt P17952); assay: Inhibitory activity against MurC (E. coli); assay type: biochemical; conditions: (E) E. coli enzyme
Protocol: S. aureus and E. coli Uridine-diphosphate-N-acetvimuramoyl: L-alanine lipase, MurC
The buffer is prepared from aqueous reagents with the following final concentrations: 83 mM Tris/HCl (pH 8.0), 50 mM MgC12, and 2 mM ATP.
(§3) Preparation of Enzyme Solution:
A 1 mg/mL stock solution of MurC is prepared in a buffer consisting of 20 mM Tris/HCl (pH 8.5) with 2.5 μM BME. The stock solution is further diluted with the buffer to give a final enzyme concentration of 100 μg/mL for the E. coli stock solution and 70 μg/mL for the S. aureus stock solution.
Preparation of Test Compound Solutions:
All test solutions are prepared in DMSO as 10 mg/mL, then diluted with 50 mM Tris/HCl (pH 8.5) to 100 μg/mL.
Preparation of Stop Solution:
The stop solution is prepared by stirring 1 part 4.2% ammonium molydbate in 4N HCl with 2 parts 0.045% malachite green for 30 min.
In this evaluation, the inhibitory activity of a test compound against MurC, the enzyme which catalyzes the third step of bacterial cell wall bioxynthesis is determined. Experiments are performed by adding 2.5 μl buffer, 2.5 μl 0.5M NH4SO2, 5 μl 2 μM L-Ala, 5 μl enzyme solution and 6.5 μl test compound solution to each well in a 96-well microplate. After a pre-incubation period of 10 mins. at 23° C., 3.75 μl of a 0.75 μM solution of UDP-MurNac is added to each well. Following an incubation period of 10 mins. at 37° C., 210 μl stop solution and 50 μl of a 34% w/v sodium citrate solution are added and color is allowed to develop for 10 mins. at 23° C. (Lanzetta et al., Analytical Biochemistry, 1979, 95) Optical density readings are taken at 660 nm using a Molecular Devices Spectra Max 250 with Soft Max software. Controls are performed using the same procedure and omitting the addition of UDP-MurNac.
Using these values the IC50 is determined by linear regression analysis.

[2] = biological target: E. coli Enopyruvyl-UPD-N-acetylglucosamine reductase, Mur B (Escherichia coli, UniProt P08373); assay: biochemical; conditions: (E) E. coli enzyme
Protocol: S. aureus and E. coli Enopyruvyl-UPD-N-acetylglucosamine reductase, Mur B
Preparation of Tris/BME buffer:
Dilute 17.5 uL of aqueous 5 mM BME (2-mercaptoethanol) to 50 mL with 50 mM Tris/HCl (pH 8.0).
as §3
Dilute aqueous MurB stock solution (0.94 mg/mL) with 200 parts 50 mM Tris/2-BME buffer.
Synthesis of Substrate for MurB (MurA Product EP-UDP-GluNAc):
A mixture of 13 mg UDP-N-acetylglucosamine and 5.5 mg phosphoenolpyruvate are dissolved in 10 mL Tris/BME buffer forming 2 mM concentrations of each reagent in solution.
Preparation of Assay Buffer:
The assay buffer is prepared in water from reagents with the following final concentrations: 100 mM Tris/HCl (pH 8.0), 200 μM NADPH, 100 μM MurB substrate, 10 μM 2-mercaptoethanol, and 10 μM KCl.
Experiments are performed by adding 20 μL of a solution of test compound in a mixture of dimethylsulfoxide and water and 30 μL of enzyme solution to a well. After a pre-incubation period of 20 mins. at 23° C., 50 μL of Tris/BME buffer and 100 μL of assay buffer are added. […] Controls are performed using the same procedure and employing 20 μL of a blank dimethylsulfonide and solvent mixture in place of the test compound solution.
Using these values, the IC50 for each test compound is determined by linear regression analysis.

staphylococci = assay: Minimum inhibitory concentration, microdilution broth method, staphylococci; assay type: cell-based; conditions: Staphylococcus aureus, Mueller-Hinton broth, 18-22 hours at 35° C.
Protocol: as §1, §2

C. elegans = assay: Efficacy against nematodes (C. elegans motility rating); set-up: key: 0: no effect; 7: reduced movement in 24 h; 8: dead in 24 h; 9: dead in 4 h; conditions: observations at 4 h and 24 h postimmersion
Method in brief: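 Mixed-stage C. elegans (~50 per well, L1 to adult) in M9 buffer exposed to test compound at 100 ppm, 150 ppm or 200 μM final. Motility of larvae and adults scored under dissecting microscope at 4 h and 24 h.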

[3] = tested on: Trichostrongylus columbriformis; assay: In vivo efficacy against T. colubriformis in infected gerbils; conditions: gerbils infected with T. colubriformis, single oral dose of 50 mg/kg by gavage, worm counts four days post-treatment, % mortality as compared to negative control
Protocol: In Vivo Evaluation of the Efficacy of Test Compounds Against T. colubriformis
In this evaluation, gerbils are infected with Trichostrongylus columbriformis infective larvae at a concentration of approximately 800 L3/mL. Larvae for gerbil infections are cultured from feces from sheep previously infected with T. colubriformis. One week post infection, test compounds are administered by gavage as a single oral dose of 50 mg/kg of body weight. For each group of 3 gerbils, 10 mg of test compound are dissolved in 2 mL of PEG 400:DMSO (1:2 v/v) and each animal is administered the test solution at a rate of 0.1 mL/10 g of body weight. […] All animals are observed daily for morbidity and mortality. Four days post-treatment, all animals are weighed and necropsied. Worm counts are conducted with the use of stereoscopes and counters.

[4] = E. faecalis GC 2242, read-out: MIC E. faecalis GC 2242
[5] = E. faecalis GC 4555, read-out: MIC E. faecalis GC 4555
[6] = S. aureus GC 1131, read-out: MIC S. aureus GC 1131
[7] = S. aureus GC 4543, read-out: MIC S. aureus GC 4543

Sequence of E. coli Uridine-diphosphate-N-acetvimuramoyl: L-alanine lipase, MurC (P17952 whole entry): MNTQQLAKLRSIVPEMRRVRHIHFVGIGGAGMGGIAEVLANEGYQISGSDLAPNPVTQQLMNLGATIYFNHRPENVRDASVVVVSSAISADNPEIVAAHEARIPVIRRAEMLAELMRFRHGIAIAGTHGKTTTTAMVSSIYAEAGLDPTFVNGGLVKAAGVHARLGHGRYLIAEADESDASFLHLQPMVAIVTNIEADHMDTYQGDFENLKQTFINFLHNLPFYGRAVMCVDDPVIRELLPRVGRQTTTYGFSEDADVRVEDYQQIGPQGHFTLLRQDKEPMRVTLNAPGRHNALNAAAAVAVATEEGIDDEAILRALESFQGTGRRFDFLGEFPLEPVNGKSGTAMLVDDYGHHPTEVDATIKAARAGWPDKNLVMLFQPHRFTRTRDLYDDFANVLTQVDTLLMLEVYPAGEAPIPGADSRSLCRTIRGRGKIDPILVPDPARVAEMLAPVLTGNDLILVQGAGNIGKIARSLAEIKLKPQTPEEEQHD
Sequence of E. coli Enopyruvyl-UPD-N-acetylglucosamine reductase, Mur B (P08373 whole entry): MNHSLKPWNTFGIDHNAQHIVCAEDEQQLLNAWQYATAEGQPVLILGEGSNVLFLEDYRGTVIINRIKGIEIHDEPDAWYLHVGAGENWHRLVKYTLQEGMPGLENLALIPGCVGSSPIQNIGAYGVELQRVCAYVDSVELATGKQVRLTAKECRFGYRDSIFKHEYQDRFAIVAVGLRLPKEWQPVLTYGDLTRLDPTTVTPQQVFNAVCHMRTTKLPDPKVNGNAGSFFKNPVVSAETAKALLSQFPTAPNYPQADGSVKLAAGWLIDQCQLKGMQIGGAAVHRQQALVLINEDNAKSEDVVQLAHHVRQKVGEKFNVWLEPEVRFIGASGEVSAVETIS

SMILES	Rating (C. elegans; dose 100 ppm)	Mortality [3] [%]	Rating (C. elegans; dose 150 ppm)	further results
O=C1O/C(=C\c2ccc3ccccc3c2)C(O)=C1c1cccc(C(F)(F)F)c1 [Example 8]				MIC (Streptococci): 0.25 µg/mL (≈ 0.654 µM); MIC (enterococci; [4]): 4 µg/mL (≈ 10.5 µM); MIC (enterococci; [5]): 16 µg/mL (≈ 41.8 µM); MurC IC50 [1]: 6 (E) μg/mL; MurB IC50 [2]: 11 (E) μg/mL; MIC (staphylococci; [6]): 8 µg/mL (≈ 20.9 µM); MIC (staphylococci; [7]): 8 µg/mL (≈ 20.9 µM)
O=C1OC(=Cc2ccc(Cl)cc2)C(O)=C1c1cccc(Cl)c1 (mixture of isomers) [R=H; R1=3-Cl—C6H4**; R2=4-Cl—C6H4]	9	18.80		
N#Cc1ccc(C=C2OC(=O)C(c3cccc(Cl)c3)=C2O)cc1 (mixture of isomers) [R=H; R1=3-Cl—C6H4**; R2=4-CN—C6H4]	9	43.70		
N#Cc1ccc(C2=C(O)C(=Cc3ccccc3C(F)(F)F)OC2=O)cc1 [R=H; R1=4-CN—C6H4; R2=2-CF3—C6H4]		69.78	7	
O=C1OC(=Cc2cc(Cl)cc(Cl)c2)C(O)=C1c1ccc(OC(F)(F)F)cc1 (mixture of isomers) [R=H; R1=4-OCF3—C6H4**; R2=3,5-diCl—C6H3]	9	33.40		
N#Cc1ccc(-c2ccc(/C=C3\OC(=O)C(c4ccc(Cl)cc4)=C3O)cc2)cc1 [R=H; R1=4-Cl—C6H4*; R2=4-(4′-CN-biphenyl)]			9	Mortality ([3]; 50 mg/kg): 23.80%
N#Cc1ccc(C2=C(O)C(=Cc3ccc(OC(F)(F)C(F)F)cc3)OC2=O)cc1 (mixture of isomers) [R=H; R1=4-CN—C6H4**; R2=4-OCF2CHF2—C6H4]	9	92.80		
O=C1OC(=Cc2cccs2)C(O)=C1c1ccc(OC(F)(F)F)cc1 (mixture of isomers) [R=H; R1=4-OCF3—C6H4**; R2=thiophen-2-yl]	0	0.00		
O=C1OC(=Cc2ccc(F)cc2)C(O)=C1c1ccc(F)cc1 (mixture of isomers) [R=H; R1=4-F—C6H4**; R2=4-F—C6H4]	9	0.00		
O=C1OC(=Cc2ccc(-c3ccccc3)cc2)C(O)=C1c1cccc(Cl)c1 [R=H; R1=3-Cl—C6H4; R2=4-biphenyl]		19.40	9	
C=CCOC1=C(c2ccc(Cl)cc2)C(=O)OC1=Cc1ccc(C#N)cc1 (mixture of isomers)	0	0.00		
O=C1O/C(=C\c2cccc3ccccc23)C(O)=C1c1cc(Cl)cc(Cl)c1 [R=H; R1=3,5-diCl—C6H3; R2=1-naphthyl]		0.00	9	
O=C1O/C(=C\c2ccc(Cl)cc2)C(O)=C1c1ccc(-c2ccccc2)cc1 [Example 139]				MIC (Streptococci): 1 µg/mL (≈ 2.67 µM); MIC (enterococci; [4]): 4 µg/mL (≈ 10.7 µM); MIC (enterococci; [5]): 8 µg/mL (≈ 21.3 µM); MurC IC50 [1]: 16 (E) μg/mL; IC50 ([2]; read-out: MurB IC50 (converted)): 16 µM; MIC (staphylococci; [6]): 16 µg/mL (≈ 42.7 µM); MIC (staphylococci; [7]): 16 µg/mL (≈ 42.7 µM)
O=C1OC(=Cc2cnccc2Br)C(O)=C1c1ccc(OC(F)(F)F)cc1 (mixture of isomers)	9	12.80		
O=C1O/C(=C\c2ccc3ccccc3c2)C(O)=C1c1cccc(C(F)(F)F)c1 [R=H; R1=3-CF3—C6H4; R2=2-naphthyl]		35.20	9	
N#Cc1ccc(C2=C(O)C(=Cc3ccc(-c4ccc(C#N)cc4)cc3)OC2=O)cc1 [R=H; R1=4-CN—C6H4*; R2=4-(4′-CN-biphenyl)]		88.07	9	
O=C1OC(=Cc2ccc(C(F)(F)F)cc2)C(O)=C1c1cccc(Cl)c1 (mixture of isomers) [R=H; R1=3-Cl—C6H4**; R2=4-CF3—C6H4]	9	57.90		
N#Cc1ccc(C2=C(O)C(=Cc3ccc(F)cc3)OC2=O)cc1 (mixture of isomers) [R=H; R1=4-CN—C6H4**; R2=4-F—C6H4]	9	82.10		
N#Cc1cccc(C2=C(O)C(=Cc3ccc(F)cc3)OC2=O)c1 (mixture of isomers) [R=H; R1=3-CN—C6H4**; R2=4-F—C6H4]	7	0.00		
O=C1O/C(=C\c2ccc(-c3ccccc3)cc2)C(O)=C1c1ccccc1C(F)(F)F [R=H; R1=2-CF3—C6H4; R2=4-biphenyl]		20.20	8	
COc1ccc(/C=C2\OC(=O)C(c3cccc(C(F)(F)F)c3)=C2O)cc1 [R=H; R1=3-CF3—C6H4; R2=4-OCH3—C6H4]		3.10	9	
O=C1OC(=Cc2ccc(-c3ccc(Cl)cc3)cc2)C(O)=C1c1cccc(Cl)c1 (mixture of isomers)	9	37.60		
O=C1OC(=Cc2ccc(OC(F)F)cc2)C(O)=C1c1ccc(OC(F)(F)F)cc1 (mixture of isomers) [R=H; R1=4-OCF3—C6H4**; R2=4-OCHF2—C6H4]	9	44.20		
O=C1O/C(=C\c2ccc(-c3ccccc3)cc2)C(O)=C1c1ccc(Cl)cc1Cl [R=H; R1=2,4-diCl—C6H3; R2=4-biphenyl]		24.50	9	
O=C1O/C(=C\c2cccc(C(F)(F)F)c2)C(O)=C1c1cccc2ccccc12 [Example 48]				MIC (Streptococci): 8 µg/mL (≈ 20.9 µM); MIC (enterococci; [4]): 32 µg/mL (≈ 83.7 µM); MIC (enterococci; [5]): > 128 µg/mL; MurC IC50 [1]: 13 (E) μg/mL; MIC (staphylococci; [6]): 32 µg/mL (≈ 83.7 µM); MIC (staphylococci; [7]): 64 µg/mL (≈ 167 µM)
O=C1OC(=Cc2ccc(Cl)cc2Cl)C(O)=C1c1ccc(Cl)cc1 (mixture of isomers) [R=H; R1=4-Cl—C6H4**; R2=2,4-diCl—C6H4]	9	91.40		
O=C1OC(=Cc2ccc3ccccc3c2)C(O)=C1c1cccc2ccccc12 [R=H; R1=1-naphthyl; R2=2-naphthyl]		28.90	9	
